Earlier results in US20130345262A1, “METHOD FOR PREVENTION OF STROKE” (BOEHRINGER INGELHEIM INTERNATIONAL GMBH, priority 2012, published 2013).

Tested on: patients who have nonvalvular atrial fibrillation
Conditions: patients with nonvalvular atrial fibrillation

**Q.** For `CC(=O)CC(c1ccccc1)c1c(O)c2ccccc2oc1=O` (racemic) [warfarin, 3-(α-acetonylbenzyl)4-hydroxycoumarin], which “reduction of the risk of stroke compared to placebo” value is on record?
**A.** The value was “about 64%”.
